Changes are numbered by the printed parent chain. The source made the active and inactive calls. No cut-off for these calls is given here.
Experiments:
[1] = biological target: T1, Tyrosine-protein phosphatase non-receptor type 11 (Homo sapiens) (UniProt Q06124); assay: Inhibition of SHP2 PTP domain (1 to 525 residues) (unknown origin) expressed in Escherichia coli BL21(DE3) using DIFMUP as substrate preincubated for 30 mins followed by substrate addition by fluorescence assay
T1 sequence (whole entry): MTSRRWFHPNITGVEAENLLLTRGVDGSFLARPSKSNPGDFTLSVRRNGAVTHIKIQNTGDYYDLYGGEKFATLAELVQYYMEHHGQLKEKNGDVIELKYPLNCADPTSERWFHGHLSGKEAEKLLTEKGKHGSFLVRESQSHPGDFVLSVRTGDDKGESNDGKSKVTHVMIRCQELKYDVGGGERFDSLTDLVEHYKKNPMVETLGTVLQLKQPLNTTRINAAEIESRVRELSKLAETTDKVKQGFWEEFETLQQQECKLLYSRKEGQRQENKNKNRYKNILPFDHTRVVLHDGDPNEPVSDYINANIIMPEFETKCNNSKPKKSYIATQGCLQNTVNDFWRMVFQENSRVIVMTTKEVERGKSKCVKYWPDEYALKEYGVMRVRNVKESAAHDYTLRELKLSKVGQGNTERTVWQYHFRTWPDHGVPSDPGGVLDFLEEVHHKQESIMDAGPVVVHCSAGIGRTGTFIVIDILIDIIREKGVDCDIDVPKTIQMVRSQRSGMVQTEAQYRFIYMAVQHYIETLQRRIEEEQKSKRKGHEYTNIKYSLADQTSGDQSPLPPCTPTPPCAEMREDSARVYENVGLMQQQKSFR

[2] = system: T2, Tyrosine-protein phosphatase non-receptor type 11 (Homo sapiens), Q06124 [F285S]; assay: Inhibition of SHP2 F285S mutant (1 to 525 residues) (unknown origin) expressed in Escherichia coli BL21(DE3) at up to 2 uM using DIFMUP as substrate preincubated for 30 mins followed by substrate addition by fluorescence assay
T2 sequence (whole entry): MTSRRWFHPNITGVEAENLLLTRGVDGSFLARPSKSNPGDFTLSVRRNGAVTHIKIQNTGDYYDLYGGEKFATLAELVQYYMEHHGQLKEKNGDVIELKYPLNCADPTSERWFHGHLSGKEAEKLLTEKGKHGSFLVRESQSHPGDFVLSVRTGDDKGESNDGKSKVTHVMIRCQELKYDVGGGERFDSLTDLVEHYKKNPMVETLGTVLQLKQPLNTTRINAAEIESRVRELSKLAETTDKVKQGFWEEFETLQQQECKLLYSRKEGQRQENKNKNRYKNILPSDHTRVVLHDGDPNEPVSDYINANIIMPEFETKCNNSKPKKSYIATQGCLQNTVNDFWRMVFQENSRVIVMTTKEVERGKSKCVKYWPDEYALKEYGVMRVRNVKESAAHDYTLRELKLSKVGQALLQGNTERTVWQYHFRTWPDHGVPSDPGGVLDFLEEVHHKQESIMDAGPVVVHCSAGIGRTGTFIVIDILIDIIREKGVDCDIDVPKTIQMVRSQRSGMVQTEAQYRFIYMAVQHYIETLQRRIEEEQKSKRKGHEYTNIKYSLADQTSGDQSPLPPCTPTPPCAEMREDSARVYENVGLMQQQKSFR

[3] = biological target: Tyrosine-protein phosphatase non-receptor type 11 (Homo sapiens, UniProt Q06124, F285S); assay: (§1) Inhibition of SHP2 F285S mutant (1 to 525 residues) (unknown origin) expressed in Escherichia coli BL21(DE3) using DIFMUP as substrate preincubated for 30 mins followed by substrate addition by fluorescence assay
[4] = system: T2, Tyrosine-protein phosphatase non-receptor type 11 (Homo sapiens), Q06124 [F285S]; assay: as §1
[5] = system: T3, Tyrosine-protein phosphatase non-receptor type 11 (Homo sapiens), Q06124 [F285S,T253M,Q257L]; assay: Inhibition of SHP2 F285S/T253M/Q257L mutant (1 to 525 residues) (unknown origin) expressed in Escherichia coli BL21(DE3) using DIFMUP as substrate preincubated for 30 mins followed by substrate addition by fluorescence assay
T3 sequence (whole entry): T2 sequence (whole entry) with T253M, Q257L

A2058 = assay: Antiproliferative activity against human A2058 cells harboring BRAF V600E mutation at up to 2 uM after 3 days by CellTiter-Glo luminescence assay; format: functional, cell-based
MOLM-14 = assay: Antiproliferative activity against human MOLM14 cells after 3 days by CellTiter-Glo luminescence assay; format: functional, cell-based; conditions: for IC50: MOLM-14, 72 h
[6] = biological target: T1, Tyrosine-protein phosphatase non-receptor type 11 (Homo sapiens); assay: Inhibition of SHP2 in human MOLM14 cells assessed as reduction in phospho-Erk levels at up to 400 uM after 2 hrs by Western blot analysis; format: cell-based
[7] = biological target: T1, Tyrosine-protein phosphatase non-receptor type 11 (Homo sapiens); assay: Inhibition of wild-type SHP2 (1 to 525 residues) (unknown origin) expressed in Escherichia coli BL21(DE3) using DIFMUP as substrate preincubated for 30 mins followed by substrate addition by fluorescence assay

inhibition [2]	IC50 (MOLM-14)	SMILES	Activity (A2058)	also measured
40%		COc1ccc2c(c1)sc1nc(O)c(Cc3ccccc3)c(=O)n12		inhibition [1]: inactive; IC50 [3]: 10 µM; inhibition [4]: Dose-dependent effect; inhibition [5]: inactive
		NCc1ccc2c(c1)sc1nc(O)c(Cc3ccccc3)c(=O)n12	inactive	
inactive		COc1ccc2c(c1)sc1nc(Cl)c(Cc3ccccc3)c(=O)n12	inactive	Activity (MOLM-14): inactive
	0.9 µM	CC1(N)CCN(c2cnc(-c3cccc(Cl)c3Cl)c(N)n2)CC1	inactive	
60%	85 µM	O=c1c(Cc2ccccc2)c(O)nc2sc3cc(Cl)ccc3n12	inactive	inhibition [6]: inactive; inhibition [7]: Active
